Test results: ChEMBL document CHEMBL1122681, “(Acylaryloxy)acetic acid diuretics. 5. [(2-Alkyl- and 2,2-disubstituted-1,3-dioxo-5-indanyl)oxy]acetic acids” (J Med Chem, 1984)

Columns and labels:
[1] = system: Rattus norvegicus; assay: Compound was evaluated for diuretic activity administered orally in female rats measured as milliequivalents of Na+x 100 / cage at 9 mg/kg; type: functional, Urine; conditions: route oral
[2] = system: Rattus norvegicus; assay: Compound was evaluated for diuretic activity administered orally in female rats measured as milliequivalents of K+x 100 / cage at 9 mg/kg; type: functional, Urine; conditions: route oral
[3] = system: Rattus norvegicus; assay: Compound was evaluated for diuretic activity administered orally in female rats measured as milliequivalents of Na+x 100 / cage at 3 mg/kg; type: functional, Urine; conditions: route oral
[4] = system: Rattus norvegicus; assay: Compound was evaluated for diuretic activity administered orally in female rats measured as milliequivalents of Cl-x 100 / cage at 81 mg/kg; type: functional, Urine; conditions: route oral
[5] = system: Pan troglodytes; assay: Compound was evaluated for diuretic activity in chimpanzee measured as clearance of […] and urate after peroral administration of 5 mg/kg; type: functional, Urine; conditions: route oral
[6] = system: Pan troglodytes; assay: Compound was evaluated for diuretic activity in chimpanzee measured as increase in the number of microequivalents of Na+ /min at 1 mg/kg; type: functional, Urine
[7] = system: Pan troglodytes; assay: Compound was evaluated for diuretic activity in chimpanzee measured as clearance of […] and urate after intra venous administration of 5 mg/kg.; type: functional, Urine
[8] = volume of urine at 9 mg/kg; type: ADME, organism-based; parameters: dose 9 mg/kg; conditions: in vivo
[9] = system: Pan troglodytes; assay: Compound was evaluated for diuretic activity in chimpanzee measured as increase in the number of microequivalents of Cl- electrolyte/min at 1 mg/kg; type: functional, Urine
[10] = system: Pan troglodytes; assay: Compound was evaluated for diuretic activity in chimpanzee measured as increase in the number of microequivalents of K+ /min at 5 mg/kg; type: functional, Urine
[11] = system: Rattus norvegicus; assay: Compound was evaluated for diuretic activity administered orally in female rats measured as milliequivalents of K+x 100 / cage at 3 mg/kg; type: functional, Urine; conditions: route oral
[12] = system: Rattus norvegicus; assay: Compound was evaluated for diuretic activity administered orally in female rats measured as milliequivalents of Na+x 100 / cage at 81 mg/kg; type: functional, Urine; conditions: route oral
[13] = system: Canis familiaris; assay: Compound was evaluated for diuretic activity, administered orally in female mongrel dogs (5 mg/kg) measured as milliequivalents of Na; type: functional, Canis lupus familiaris, Urine
[14] = system: Pan troglodytes; assay: Compound was evaluated for diuretic activity in chimpanzee measured as increase in the number of microequivalents of Na+ /min at 5 mg/kg; type: functional, Urine
[15] = volume of urine at 27 mg/kg; type: ADME, organism-based; parameters: dose 27 mg/kg; conditions: in vivo
[16] = system: Pan troglodytes; assay: Compound was evaluated for diuretic activity in chimpanzee measured as increase in volume of urine at 1 mg/kg; type: functional
[17] = volume of urine at 81 mg/kg; type: ADME, organism-based; parameters: dose 81 mg/kg; conditions: in vivo
[18] = system: Rattus norvegicus; assay: Compound was evaluated for diuretic activity administered orally in female rats measured as milliequivalents of K+x 100 / cage at 81 mg/kg; type: functional, Urine; conditions: route oral
[19] = system: Pan troglodytes; assay: Compound was evaluated for diuretic activity in chimpanzee measured as increase in the number of microequivalents of K+ /min at 1 mg/kg; type: functional, Urine
[20] = system: Canis familiaris; assay: Compound was evaluated for diuretic activity, administered orally in female mongrel dogs (5 mg/kg) measured as milliequivalents of K; type: functional, Canis lupus familiaris, Urine
[21] = system: Pan troglodytes; assay: Compound was evaluated for diuretic activity in chimpanzee measured as increase in volume of urine at 5 mg/kg; type: functional
[22] = system: Canis familiaris; assay: Compound was evaluated for diuretic activity, in female mongrel dogs by measuring volume of urine, after iv administration of 5 mg/kg (control/compound treatment results) Control = 2; type: ADME, organism-based, Canis lupus familiaris; parameters: dose 5 mg/kg, route intravenous; conditions: dog, in vivo
[23] = system: Canis familiaris; assay: Compound was evaluated for diuretic activity, in female mongrel dogs by measuring amount of K+ in urine after iv administration of 5 mg/kg (control/compound treatment results) Control = 11; type: functional, Canis lupus familiaris
[24] = organism: Canis familiaris; assay: volume of urine in dog; type: ADME, organism-based, Canis lupus familiaris; conditions: in vivo
[25] = system: Rattus norvegicus; assay: Compound was evaluated for diuretic activity administered orally in female rats measured as milliequivalents of K+x 100 / cage at 27 mg/kg; type: functional, Urine; conditions: route oral
[26] = system: Pan troglodytes; assay: Compound was evaluated for diuretic activity in chimpanzee measured as increase in the number of microequivalents of Cl- electrolyte/min at 5 mg/kg; type: functional, Urine
[27] = system: Canis familiaris; assay: Compound was evaluated for diuretic activity, in female mongrel dogs by measuring amount of Cl- in urine after iv administration of 5 mg/kg (control/compound treatment results) Control = 62; type: functional, Canis lupus familiaris
[28] = system: Rattus norvegicus; assay: Compound was evaluated for diuretic activity administered orally in female rats measured as milliequivalents of Cl-x 100 / cage at 3 mg/kg; type: functional, Urine; conditions: route oral
[29] = volume of urine at 3 mg/kg; type: ADME, organism-based; parameters: dose 3 mg/kg; conditions: in vivo
[30] = system: Canis familiaris; assay: Compound was evaluated for diuretic activity, in female mongrel dogs by measuring amount of Na+ in urine after iv administration of 5 mg/kg (control/compound treatment results) Control = 107; type: functional, Canis lupus familiaris
[31] = system: Rattus norvegicus; assay: Compound was evaluated for diuretic activity administered orally in female rats measured as milliequivalents of Cl-+x 100 / cage at 27 mg/kg; type: functional, Urine; conditions: route oral
[32] = system: Rattus norvegicus; assay: Compound was evaluated for diuretic activity administered orally in female rats measured as milliequivalents of Na+x 100 / cage at 27 mg/kg; type: functional, Urine; conditions: route oral
[33] = system: Rattus norvegicus; assay: Compound was evaluated for diuretic activity administered orally in female rats measured as milliequivalents of Cl-x 100 / cage at 9 mg/kg; type: functional, Urine; conditions: route oral
[34] = system: Canis familiaris; assay: Compound was evaluated for diuretic activity, administered orally in female mongrel dogs (5 mg/kg) measured as milliequivalents of Cl-; type: functional, Canis lupus familiaris, Urine

Urine volume [8]: 29 mL
Urine volume [15]: 31 mL
Urine volume [17]: 35 mL
Urine volume [22]: 8 mL/min
Urine volume [24]: 267 mL
Urine volume [29]: 28 mL
SMILES: CC1(c2ccccc2)Cc2cc(OCC(=O)O)c(Cl)c(Cl)c2C1=O (centres undefined) [INDACRINONE]
Activity [1]: 97
PActivity [2]: 50
Activity [3]: 86
Activity [4]: 303
Delta C urate / delta C insulin [5]: 0.332
Increase [6]: 2383
Delta C urate / delta C insulin [7]: 0.55
Increase [9]: 2624
Increase [10]: 53
Activity [11]: 32
Activity [12]: 189
Activity [13]: 12
Increase [14]: 409
Increase in volume [16]: 14.8 mL/min
Activity [18]: 85
Increase [19]: 171
Activity [20]: 2.2
Increase in volume [21]: 3.6 mL/min
Activity [23]: 62 u equiv min-1
Activity [25]: 61
Increase [26]: 554
Activity [27]: 1010 u equiv min-1
Activity [28]: 85
Activity [30]: 920 u equiv min-1
Activity [31]: 223
Activity [32]: 129
Activity [33]: 163
Activity [34]: 26
